Source: the supplement of paper PMC10307832

Experiments:
Test in all cases: relative viability (nuclei count vs DMSO), 5 days (fraction); higher = more cells survive
Veliparib + Phenformin = compound: C[C@]1(c2nc3c(C(N)=O)cccc3[nH]2)CCCN1 [Veliparib] + N=C(N)NC(=N)NCCc1ccccc1 [Phenformin] (partner 250 µM)
Procedure, shortened: (§1)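 A single step with final 0.05% Triton X-100, 1% formaldehyde and 1 ug/ml Hoechst fixed the cells and stained nuclei 5 days after treatment. Lung cancer cell lines in 1536-well plates had been treated by pin tool the day after seeding with one drug alone or a fixed anchor-drug dose plus five library-drug doses (not always all listed) in √10 steps, and nuclei were counted on 4× images. Relative viability is the ratio of nuclei in treated wells to nuclei in vehicle wells, taken as the median of duplicate plates.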

Veliparib + Tozasertib = compound: C[C@]1(c2nc3c(C(N)=O)cccc3[nH]2)CCCN1 [Veliparib] + Cc1cc(Nc2cc(N3CCN(C)CC3)nc(Sc3ccc(NC(=O)C4CC4)cc3)n2)n[nH]1 [Tozasertib] (partner 0.1 µM)
Procedure, shortened: as §1

[1] = compound: COC1=CC=C(C=C1)CN2C=CC3=C2C=C(C=C3)C(=O)NO + CC(C)C[C@H](NC(=O)[C@H](Cc1ccccc1)NC(=O)c1cnccn1)B(O)O [Bortezomib] (partner 0.002 µM)
Procedure, shortened: as §1

Veliparib + Decitabine = compound: C[C@]1(c2nc3c(C(N)=O)cccc3[nH]2)CCCN1 [Veliparib] + Nc1ncn([C@H]2C[C@H](O)[C@@H](CO)O2)c(=O)n1 [Decitabine] (partner 2 µM)
Procedure, shortened: as §1

With SW 1573 the relative viability (Veliparib + Phenformin; first compound 0.06325 µM) was 0.32, the relative viability (Veliparib + Phenformin; first compound 0.2 µM) was 0.419 and the relative viability (Veliparib + Phenformin; first compound 0.6325 µM) was 0.324. For the same cell line, the relative viability (Veliparib + Phenformin; first compound 2 µM) was 0.4, the relative viability (Veliparib + Tozasertib; first compound 0.06325 µM) was 0.175 and the relative viability (Veliparib + Tozasertib; first compound 0.2 µM) was 0.17. It also gave a relative viability (Veliparib + Tozasertib; first compound 0.6325 µM) of 0.204, a relative viability (Veliparib + Tozasertib; first compound 2 µM) of 0.175 and a relative viability ([1]; first compound 0.253 µM) of 1.18. It also gave a relative viability ([1]; first compound 0.8 µM) of 1.15, a relative viability ([1]; first compound 2.53 µM) of 1.13 and a relative viability ([1]; first compound 8 µM) of 0.906. It also gave a relative viability (Veliparib + Decitabine; first compound 0.02 µM) of 0.29, a relative viability (Veliparib + Decitabine; first compound 0.06325 µM) of 0.289 and a relative viability (Veliparib + Decitabine; first compound 0.2 µM) of 0.287. For the same cell line, the relative viability (Veliparib + Decitabine; first compound 0.6325 µM) was 0.361 and the relative viability (Veliparib + Decitabine; first compound 2 µM) was 0.298.
